Consider five molecules from paper PMC3281113, “Recognition of Anesthetic Barbiturates by a Protein Binding Site: A High Resolution Structural Analysis” (PLoS ONE, 2012).

Read-outs that look alike come from different tables or passages of the source.

One data set has as its target T1, horse spleen apoferritin (Equus caballus, UniProt P02791).
T1 construct: gene FTL; native spleen apoferritin from Sigma-Aldrich, 24-mer, heavy and light chains in approximate mole ratio 1:6; with Ferritin heavy chain
T1 sequence (P02791 2-175): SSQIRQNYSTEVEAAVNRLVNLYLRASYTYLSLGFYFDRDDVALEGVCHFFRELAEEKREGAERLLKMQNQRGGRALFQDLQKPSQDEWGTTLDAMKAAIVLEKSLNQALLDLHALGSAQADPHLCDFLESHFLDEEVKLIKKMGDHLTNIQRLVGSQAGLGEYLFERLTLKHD
Briefly: isothermal titration calorimetry. Format: binding.

Data set [1] concerns the molecule itself. Description: crystal structure; apoferritin co-crystallized with thiopental or pentobarbital; reservoir 0.2-1.6 M (NH4)2SO4, 0.1-0.275 M CdSO4, 18°C; space group F432.

As for `CCCC(C)C1(CC)C(=O)NC(=O)NC1=O` (racemic) [Pentobarbital], the Kd at horse spleen apoferritin was determined as 64.3 ± 5.5 µM. Consider `CCCC(C)C1(CC)C(=O)NC(=S)NC1=O` (racemic) [Thiopental], for which the Kd at horse spleen apoferritin (read-out: Thiopental) was 11 ± 0.9 µM.

Regarding `CCC[C@@H](C)C1(CC)C(=O)NC(=S)NC1=O` [R-form of thiopental], the Kd on horse spleen apoferritin (read-out: K d) was 29.3 ± 3.1 µM. As for `CCC[C@H](C)[C@@]1(CC)C(=O)N=C(S)NC1=O` [S-enantiomer of thiopental], at horse spleen apoferritin (read-out: K d), the Kd came to 18.7 ± 0.9 µM.

B1: horse spleen apoferritin (natural protein, UniProt P02791 1-175, looked up)
chain: MSSQIRQNYSTEVEAAVNRLVNLYLRASYTYLSLGFYFDRDDVALEGVCHFFRELAEEKREGAERLLKMQNQRGGRALFQDLQKPSQDEWGTTLDAMKAAIVLEKSLNQALLDLHALGSAQADPHLCDFLESHFLDEEVKLIKKMGDHLTNIQRLVGSQAGLGEYLFERLTLKHD
notes: ferritin light chain of horse spleen apoferritin; only the light chain is modelled in the structures; The commercial apoferritin is a mixture of heavy and light chains in an approximate mole ratio of 1:6; Only the light chain is seen in the electron density, so the 24-mer is written here as light chains only; also called L-chain; L-protomers; source: bought: Sigma-Aldrich; purified by gel …
For B1, the “stoichiometry N” value in data set [1] stood at 24.

One may read the stoichiometry N as a count of units in the complex or per binding partner.
